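96-well plates; 48 h exposure; 5 concentrations. Endpoints by linear interpolation between flanking doses. Not reached: highest tested concentration assigned. GI50: concentration for 50% inhibition of growth.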 Calls of active or inactive are those of the source. No stated cut-off is given here; in the data, active = GI50 up to about 1.1 µM and inactive = higher.
How the values were obtained:
Assay in all cases: growth of human tumour cells (NCI), 48 h
MOLT-4 = tested on: MOLT-4
RPMI-8226 = tested on: RPMI-8226
HL-60 = tested on: HL-60
MDA-N = tested on: MDA-N
CAKI-1 = tested on: CAKI-1
MDA-MB-231 = tested on: MDA-MB-231
SK-MEL-5 = tested on: SK-MEL-5
MDA-MB-435 = tested on: MDA-MB-435
UO-31 = tested on: UO-31
UACC-62 = tested on: UACC-62
COLO 205 = tested on: COLO 205
OVCAR-4 = tested on: OVCAR-4
NCI/ADR-RES = tested on: NCI/ADR-RES
786-0 = tested on: 786-0
NCI-H226 = tested on: NCI-H226
M14 = tested on: M14
LOX IMVI = tested on: LOX IMVI
SN12C = tested on: SN12C
U-251 = tested on: U-251

Measured: GI50

COC(=O)CC(SCCO)SCCO
inactive: MOLT-4 > 100 µM | RPMI-8226 > 100 µM | HL-60 > 100 µM | MDA-N > 100 µM | CAKI-1 > 100 µM | MDA-MB-231 > 100 µM | SK-MEL-5 > 100 µM | MDA-MB-435 > 100 µM | UO-31 > 100 µM | UACC-62 > 100 µM | COLO 205 > 100 µM | OVCAR-4 > 100 µM | NCI/ADR-RES > 100 µM | 786-0 > 100 µM | NCI-H226 > 100 µM | M14 > 100 µM | LOX IMVI > 100 µM | SN12C > 100 µM

O=C(Nc1nc(C23CC4CC(CC(C4)C2)C3)cs1)c1cc2c(ccc3ccccc32)oc1=O
inactive: MOLT-4 > 100 µM | RPMI-8226 > 100 µM | HL-60 > 100 µM | MDA-N > 100 µM | CAKI-1 > 100 µM | MDA-MB-231 > 100 µM | U-251 > 100 µM | SK-MEL-5 > 100 µM | MDA-MB-435 > 100 µM | UO-31 > 100 µM | COLO 205 > 100 µM | OVCAR-4 > 100 µM | NCI/ADR-RES > 100 µM | 786-0 > 100 µM | NCI-H226 > 100 µM | LOX IMVI > 100 µM | SN12C > 100 µM

CC(OC(C)(C)C)[C@H](NC(=O)OCc1ccccc1)C(=O)NC(OCc1ccccc1)[C@H]1COC(C)(C)O1 (stereo partly specified)
inactive: MOLT-4 > 10 µM | HL-60 > 10 µM | MDA-N > 10 µM | CAKI-1 > 10 µM | MDA-MB-231 > 10 µM | U-251 > 10 µM | SK-MEL-5 > 10 µM | MDA-MB-435 > 10 µM | UO-31 > 10 µM | UACC-62 > 10 µM | COLO 205 > 10 µM | OVCAR-4 > 10 µM | NCI/ADR-RES > 10 µM | 786-0 > 10 µM | NCI-H226 > 10 µM | M14 > 10 µM | LOX IMVI > 10 µM | SN12C > 10 µM

C=C(Cl)C(C)(Cl)CCC(Cl)C(C)(C)Cl (stereo unspecified)
inactive: MOLT-4 23.9 µM | RPMI-8226 20.5 µM | HL-60 36.2 µM | MDA-N 44.2 µM | CAKI-1 > 100 µM | MDA-MB-231 32.7 µM | U-251 46.9 µM | SK-MEL-5 50.5 µM | MDA-MB-435 62.2 µM | UO-31 37.6 µM | COLO 205 44.8 µM | OVCAR-4 53.7 µM | NCI/ADR-RES > 100 µM | 786-0 > 100 µM | NCI-H226 42.3 µM | M14 70.8 µM | LOX IMVI 18.2 µM | SN12C 51.6 µM
